{"source": "patent US10766940B2", "about": "“Brain penetrant amylin receptor based peptides for Alzheimer's disease” (The Governors of the University of Alberta, priority 2016, dated 2020)", "key": {"[1]": {"test_system": "heterozygous CTR knockdown mice (50% depletion of amylin receptors)", "experiment": "R5 brain uptake in heterozygous CTR knockdown mice", "assay_type": "in vivo, mouse", "details": "Wt vs CTR knockdown mice, ip, 2 hr", "method": "Mice were injected with a single dose and then sacrificed, and the brains were extracted after 2 hours from injection. Fluorescence in brains was quantified as previously described."}, "[2]": {"molecular_target": "T1, AMY3 receptor (CTR+RAMP3), HEK293-AMY3 cells (Homo sapiens, UniProt O60896+P30988)", "T1 construct": "expressed in transfected cells; AMY3-293 / AMY3-HEK)", "T1 sequence (P30988 25-474)": "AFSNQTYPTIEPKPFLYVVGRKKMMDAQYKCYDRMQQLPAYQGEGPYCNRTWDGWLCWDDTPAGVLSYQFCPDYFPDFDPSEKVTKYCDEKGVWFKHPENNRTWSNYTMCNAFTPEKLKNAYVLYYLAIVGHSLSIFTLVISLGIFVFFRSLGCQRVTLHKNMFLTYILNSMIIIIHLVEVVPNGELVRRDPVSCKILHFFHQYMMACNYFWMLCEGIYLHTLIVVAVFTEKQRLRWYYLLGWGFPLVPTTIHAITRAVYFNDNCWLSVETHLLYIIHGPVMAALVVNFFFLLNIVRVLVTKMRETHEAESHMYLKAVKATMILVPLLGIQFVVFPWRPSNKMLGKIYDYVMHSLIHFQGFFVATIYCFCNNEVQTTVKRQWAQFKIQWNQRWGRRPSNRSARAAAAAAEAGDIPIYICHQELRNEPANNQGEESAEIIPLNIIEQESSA", "T1 sequence (O60896 24-148 partner)": "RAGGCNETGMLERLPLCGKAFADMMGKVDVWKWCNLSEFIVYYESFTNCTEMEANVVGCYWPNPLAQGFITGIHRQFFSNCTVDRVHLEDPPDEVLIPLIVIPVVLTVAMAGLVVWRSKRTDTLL", "experiment": "Peptide array-cell binding assay, AMY3 cells", "details": "membrane-bound peptides, GFP cells", "source_text": "A peptide array library derived from AC253 peptide sequence comprising 14 short peptide sequences namely, R1-R14 (R-R13 are 12 amino acids, peptide R14 is 14 aa), was synthesized in duplicate on a cellulose membrane using SPOT synthesis. Briefly, peptide fragments were designed by selecting the first 12 amino acids from N-terminus, skipping one amino acid and moving towards C-terminus to yield 13 sequences R1-R13, and peptide R14 is the first 14 amino acid of the N-terminus region of AC253. The peptide array was synthesized on a PEG-500-derivatized cellulose membrane with a free amino terminal group using a semiautomatic robot AutoSpot ASP222 (Intavis AG, Germany). Synthesis of peptides on PEG500 derivatised cellulose membrane was started by attaching first β-alanine residue (linker) to the cellulose membrane and subsequently peptides synthesized from the C-terminus. […]\nTo screen the peptide library for amylin receptor binding affinity, transfected GFP-positive Human Embryonic Kidney 293 cells that express AMY3 receptor (CTR+RAMP3) was used. […] The peptide array membrane was incubated with 20 ml GFP-cells (75,000/ml) in serum free media for 3 hr, and after washing, the net fluorescence intensity of each peptide spot due to bound cells was quantified using a Kodak imager. […] Duplicate peptide spots, two scans, and two different experiments were used to calculate net fluorescence intensity. […]"}, "AMY1": {"molecular_target": "T2, AMY1 (Homo sapiens, UniProt O60894+P30988)", "T2 construct": "expressed in transfected cells", "T2 sequence (O60894 27-148 partner, one chain of several)": "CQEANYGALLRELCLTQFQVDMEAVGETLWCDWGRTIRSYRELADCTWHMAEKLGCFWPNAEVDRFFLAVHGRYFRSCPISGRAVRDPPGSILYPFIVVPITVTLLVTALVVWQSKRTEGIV", "experiment": "Flow cytometry cell uptake, AMY1 cells", "assay_type": "cell-based", "details": "10 μM, 37° C., 60 min"}, "[3]": {"test_system": "Aβ plaques in TgCRND8 mice brains", "experiment": "Immunofluorescent-histological staining of Aβ plaques (6E10)", "assay_type": "in vivo, mouse", "details": "Tg AC253 vs Tg CSF", "method": "A microcannula was stereotaxically inserted into the right cerebral ventricle (0.12 right lateral and 0.06 posterior to bregma, 3 mm deep) of isofluorane-anesthetized mice, and connected to an osmotic pump (Alzet; model 2004) implanted subcutaneously on the back of the mouse. The pump infused a solution of either aCSF or AC253 in aCSF into the ventricle at a rate of […] to yield an estimated concentration of 1 μM AC253 in the mouse CSF at equilibrium based upon the known CSF dynamics in the mouse brain (Di Pardo et al., 2012). The pump reservoir was replaced every 28 days for a total of 5-6 months. Animals were monitored on a daily basis for signs of treatment-related toxicity, such as poor grooming, lethargy, loss of bodyweight, and abnormal behavior. […]\nFor immunostaining, […] thick brain sections were cut using a Cryostat (Leica CM1850), fixed with 4% paraformaldehyde in PBS, permeabilized using 0.3% Triton X-100 and stained with Aβ (6E10), Iba1, and CTR antibody, followed by fluorescent secondary antibody (goat anti mouse Alexa Fluor-546 and donkey anti rabbit Alexa Fluor-488) and mounted in DAPI mounting media. Fluorescent microscopy images were acquired with an Axioplan-2 fluorescence microscope with AxioVision software (Carl Zeiss Ltd., Toronto, ON, Canada). Amyloid plaque size and area were analyzed with Image J."}, "[4]": {"test_system": "TgCRND8 and wild-type mice", "experiment": "Daily monitoring for treatment-related toxicity during chronic icv infusion", "assay_type": "in vivo, mouse", "details": "chronic icv infusion 5-6 months", "method": "A microcannula was stereotaxically inserted into the right cerebral ventricle (0.12 right lateral and 0.06 posterior to bregma, 3 mm deep) of isofluorane-anesthetized mice, and connected to an osmotic pump (Alzet; model 2004) implanted subcutaneously on the back of the mouse. The pump infused a solution of either aCSF or AC253 in aCSF into the ventricle at a rate of […] to yield an estimated concentration of 1 μM AC253 in the mouse CSF at equilibrium based upon the known CSF dynamics in the mouse brain (Di Pardo et al., 2012). The pump reservoir was replaced every 28 days for a total of 5-6 months. Animals were monitored on a daily basis for signs of treatment-related toxicity, such as poor grooming, lethargy, loss of bodyweight, and abnormal behavior. After completion of medication and behavioral tests, all mice were killed with an overdose of isoflourane anesthetic, perfused transcardially with saline, and the brains were harvested. The left hemisphere per animal was frozen for biochemical analysis (Western blot, ELISA), and the right hemisphere retained for histological analysis."}}, "note": "Residues, ends and D or L forms follow the SMILES beside them. No end group written: not given here."}
{"molecule": "CC(C)C[C@H](NC(=O)[C@H](CCC(=O)O)NC(=O)[C@H](CCC(N)=O)NC(=O)[C@@H](N)CO)C(=O)N[C@@H](Cc1c[nH]cn1)C(=O)N[C@@H](CCCNC(=N)N)C(=O)N[C@@H](CC(C)C)C(=O)N[C@@H](CCC(N)=O)C(=O)N[C@H](C(=O)N[C@@H](Cc1ccc(O)cc1)C(=O)N1CCC[C@H]1C(=O)N[C@@H](CCCNC(=N)N)C(N)=O)[C@@H](C)O", "note": "[R5] (H-SQELHRLQTYPR-NH2; N-terminus assumed)", "values": [{"measurement": "brain uptake in relation to amylin receptor expression", "setting": "[1]", "result": "proportional to the degree of amylin receptor expression"}, {"measurement": "binding to HEK293-AMY3 cells on peptide array (fluorescence)", "setting": "[2]", "result": "most significant binding"}, {"measurement": "flow cytometry binding to AMY1 cells", "setting": "AMY1", "result": "selective and significant specific binding"}]}
{"molecule": "CC(C)C[C@H](NC(=O)[C@H](CCCNC(=N)N)NC(=O)CNC(=O)[C@@H](N)CC(C)C)C(=O)N[C@@H](CO)C(=O)N[C@@H](CCC(N)=O)C(=O)N[C@@H](CCC(=O)O)C(=O)N[C@@H](CC(C)C)C(=O)N[C@@H](Cc1c[nH]cn1)C(=O)N[C@@H](CCCNC(=N)N)C(=O)N[C@@H](CC(C)C)C(=O)N[C@@H](CCC(N)=O)C(=O)N[C@H](C(=O)N[C@@H](Cc1ccc(O)cc1)C(=O)N1CCC[C@H]1C(=O)N[C@@H](CCCNC(=N)N)C(=O)N[C@H](C(=O)N[C@@H](CC(N)=O)C(=O)N[C@H](C(=O)NCC(=O)N[C@@H](CO)C(=O)N[C@@H](CC(N)=O)C(=O)N[C@H](C(=O)N[C@@H](Cc1ccc(O)cc1)C(N)=O)[C@@H](C)O)[C@@H](C)O)[C@@H](C)O)[C@@H](C)O", "note": "[AC253]", "values": [{"measurement": "number of Aβ plaques, total area of Aβ-positive profiles", "setting": "[3]", "result": "did not reveal significant difference"}, {"measurement": "signs of off-target effects or changes in body weight", "setting": "[4]", "result": "none of the mice receiving AC253 showed any signs of off-target effects"}]}
{"molecule": "LGRLSQELHRLQTY (LGRLSQELHRLQTY-NH2) [R14]", "values": [{"measurement": "binding to HEK293-AMY3 cells on peptide array (fluorescence)", "setting": "[2]", "result": "most significant binding"}, {"measurement": "flow cytometry binding to AMY1 cells", "setting": "AMY1", "result": "selective and significant specific binding"}]}
